Experiments:
[1] = system: PAH patients; details: inhaled form; cited from earlier work
[2] = treprostinil as the free acid, cited from earlier work
[3] = Human skin homogenate stability assay (Test 3); assay type: in vitro ADME; details: half-life in human skin homogenate, 0.5 μM test compound, 37° C., up to 45 min, NADPH-generating system, pH 7.4; read-out: Test 3 T1/2
Method: At 0, 5, 15, 30 and 45 min, an aliquot was taken and quenched with internal standard-containing stop solution. No co-factor controls at 45 min were prepared. After incubation, the samples were analyzed by LC-MS/MS. Peak area ratios of analyte to internal standard were used to calculate the intrinsic clearance. The intrinsic clearance (CLin t) was determined from the first-order elimination constant by non-linear regression.

[4] = Human liver microsomal stability assay (Test 1); assay type: in vitro ADME; details: half-life in human liver microsomes, 0.5 μM test compound, 37° C., up to 45 min, NADPH-generating system, pH 7.4; read-out: Test 1 T1/2
Method: (Test 1) Human liver microsomal stability assay was conducted by incubating 0.5 μM test compound at 37° C. for up to 45 minutes in 50 mM potassium phosphate buffer (pH 7.4) containing 0.5 mg of microsomal protein and 50 μL of NADPH-generating system (7.8 mg of glucose 6-phosphate, 1.7 mg of NADPH and 6 U of glucose 6-phosphate dehydrogenase per mL in 2% w/v of sodium bicarbonate). At 0, 5, 15, 30 and 45 min, an aliquot was taken and quenched with internal standard-containing stop solution. No co-factor controls at 45 min were prepared. After incubation, the samples were analyzed by LC-MS/MS. Peak area ratios of analyte to internal standard were used to calculate the intrinsic clearance. The intrinsic clearance (CLint) was determined from the first-order elimination constant by non-linear regression.

[5] = Human plasma stability assay (Test 2); assay type: in vitro ADME; details: half-life in heparinated human plasma, 0.5 μM test compound, 37° C.; read-out: Test 2 T1/2
Method: (Test 2) Human plasma stability assay was conducted by incubating 0.5 μM test compound at 37° C. for up to 120 min in heparinated human plasma. At 0, 5, 15, 30, 60, 120 and […], an aliquot was taken and quenched with internal standard-containing stop solution. After incubation, the samples were analyzed by LC-MS/MS. Peak area ratios of analyte to internal standard were used to calculate the half-life.

| SMILES | half-life at 0.5 μM [3] [h] | half-life at 0.5 μM [4] [h] | half-life at 0.5 μM [5] [h] | PAH patients who cannot take inhaled treprostinil due to irritation [1] | absolute oral bioavailability ([2]; oral) | systemic half-life ([2]; due to significant metabolism) |
| --- | --- | --- | --- | --- | --- | --- |
| CCCCC[C@H](O)CC[C@@H]1[C@H]2Cc3cccc(OCC(=O)O)c3C[C@H]2C[C@H]1O [Compound A, Treprostinil] |  |  |  | about 50% | less than 10% | very short |
| CCCCC[C@H](O)CC[C@@H]1[C@H]2Cc3cccc(OCC(=O)O)c3C[C@H]2C[C@H]1OC(=O)CC [Compound Ia-1] | > 1 | < 0.25 | > 1 |  |  |  |
| CCCCC[C@H](O)CC[C@@H]1[C@H]2Cc3cccc(OCC(=O)O)c3C[C@H]2C[C@H]1OC(=O)OC [Compound Ia-10, [1-(3-hydroxyoctyl)-2-methoxycarbonyloxy-2,3,3a,4,9,9a-hexahydro-1H-cyclopenta[b]naphthalen-5-yloxy]acetic acid] | > 1 | < 0.25 | > 1 |  |  |  |
| CCCCC[C@@H](CC[C@@H]1[C@H]2Cc3cccc(OCC(=O)O)c3C[C@H]2C[C@H]1O)OC(=O)COC [Compound Ib-8, {2-hydroxy-1-[3-(2-methoxyacetoxy)octyl]-2,3,3a,4,9,9a-hexahydro-1H-cyclopenta[b]naphthalen-5-yloxy}acetic acid] | > 1 | < 0.25 | > 1 |  |  |  |
| CCCCCC(O)CCC1C(O)CC2Cc3c(cccc3OCC(=O)OCCC(=O)O)CC21 (stereo not drawn) [II-4, 3-{2-[2-hydroxy-1-(3-hydroxyoctyl)-2,3,3a,4,9,9a-hexahydro-1H-cyclopenta[b]naphthalen-5-yloxy]acetoxy}propionic acid] | > 1 | 0.25 to 0.5 | > 1 |  |  |  |
| CCCCC[C@H](O)CC[C@@H]1[C@H]2Cc3cccc(OCC(=O)O)c3C[C@H]2C[C@H]1OC(=O)CCCC [Ia-3] | > 1 | < 0.25 | > 1 |  |  |  |
| CCCCC[C@H](O)CC[C@@H]1[C@H]2Cc3cccc(OCC(=O)O)c3C[C@H]2C[C@H]1OC(=O)COCC [Ia-9] | > 1 | < 0.25 | > 1 |  |  |  |

The next lines start with results.

| half-life at 0.5 μM [3] [h] | half-life at 0.5 μM [4] [h] | half-life at 0.5 μM [5] [h] | SMILES | PAH patients who cannot take inhaled treprostinil due to irritation [1] | absolute oral bioavailability ([2]; oral) | systemic half-life ([2]; due to significant metabolism) |
| --- | --- | --- | --- | --- | --- | --- |
| > 1 | 0.517 to 1 | > 1 | CCCCC[C@H](O)CC[C@@H]1[C@H]2Cc3cccc(OCC(=O)OCC(=O)O)c3C[C@H]2C[C@H]1O [II-1] |  |  |  |
| > 1 | 0.517 to 1 | > 1 | CCCCC[C@H](O)CC[C@@H]1[C@H]2Cc3cccc(OCC(=O)O[C@H](C)C(=O)O)c3C[C@H]2C[C@H]1O [II-2] |  |  |  |

Source: US12643847B2, “Treprostinil derivatives and compositions and uses thereof” (CORSAIR PHARMA, INC., priority 2015, dated 2026)
